Test systems include SK-MEL-2; TK-10; HCC 2998; HCT-15; OVCAR-5; SN12C; ACHN; SK-OV-3; U-251; OVCAR-8; NCI-H23; MOLT-4; SW-620; Malme-3M; NCI-H226; SK-MEL-5; HT-29; SF-539; SF-268; KM12.
Holding throughout (assay): NCI-60 cell line screen, 48 h

Molecules are shown by their SMILES.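 These data come from cells grown in 96-well plates and exposed to compound for 48 hours at five concentrations. At the GI50, growth is halved.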 The source made the active and inactive calls. Rule as the data show it: active = GI50 up to about 1.1 µM and inactive = higher. Where only a bound is given, the exact number is not on record here.

For `CNC(=O)OC(C)CN1c2ccccc2Sc2ccc(Cl)cc21` (stereo not drawn), the GI50 in the assay with SK-MEL-2 was > 10 µM (inactive); in the assay with TK-10, > 10 µM (inactive); in the assay on HCC 2998, > 10 µM (inactive); in the assay with HCT-15, above 10 µM; with OVCAR-5 it was > 10 µM (inactive); with SN12C it was > 10 µM (inactive). The GI50 with ACHN, with SK-OV-3, in the assay with U-251, in the assay with OVCAR-8, in the assay with NCI-H23 and in the assay with MOLT-4 was > 10 µM (inactive) throughout. Moreover, the GI50 in the assay on SW-620, in the assay on Malme-3M, in the assay on NCI-H226, in the assay on SK-MEL-5, with HT-29 and with SF-539 was > 10 µM (inactive) each time. Further, the GI50 in the assay with SF-268 is > 10 µM (inactive).

Regarding `S=c1sc2c(s1)SC(c1ccccc1)CS2` (stereo not drawn), the GI50 with SK-MEL-2 was > 100 µM (inactive); with HCC 2998, > 85.1 µM (inactive); in the assay on HCT-15, above 100 µM; in the assay on KM12 it was > 100 µM (inactive); in the assay on OVCAR-5, > 100 µM (inactive); in the assay with SN12C, > 100 µM (inactive). In addition, the GI50 in the assay on SK-OV-3, with U-251, with OVCAR-8, with NCI-H23, in the assay with MOLT-4 and in the assay on SW-620 was > 100 µM (inactive) each time. The GI50 in the assay on Malme-3M, in the assay with NCI-H226, with SK-MEL-5, with HT-29, in the assay on SF-539 and in the assay on SF-268 was > 100 µM (inactive) in each case.

With `CNC(=O)OCC1=C(COC(=O)NC)CN(c2ccc(OC)cc2)C1`, the GI50 in the assay on SK-MEL-2 was > 100 µM (inactive); with TK-10 it was 85.7 µM (inactive); in the assay on HCC 2998, > 100 µM (inactive); in the assay with HCT-15, above 100 µM; with KM12, > 100 µM (inactive); with OVCAR-5 it was > 100 µM (inactive). Besides, the GI50 in the assay on SN12C, with ACHN, with SK-OV-3, in the assay with U-251, with OVCAR-8 and in the assay with NCI-H23 was > 100 µM (inactive) each time. Besides, the GI50 was > 100 µM (inactive) in the assay with MOLT-4; > 100 µM (inactive) in the assay on SW-620; > 100 µM (inactive) with Malme-3M; 4.2 µM (inactive) in the assay with NCI-H226; > 100 µM (inactive) in the assay on SK-MEL-5; > 100 µM (inactive) in the assay with HT-29. Moreover, the GI50 in the assay with SF-539 and with SF-268 was > 100 µM (inactive) in each case.

As to `COc1cc(/N=N\c2cccc(S(=O)(=O)O)c2)ccc1/N=N\c1ccc(/C=C/c2ccc(-n3on3-c3ccc(/C=C/c4ccc(/N=N/c5ccc(/N=N\c6cccc(S(=O)(=O)O)c6)cc5OC)cc4S(=O)(=O)O)c(S(=O)(=O)O)c3)cc2S(=O)(=O)O)c(S(=O)(=O)O)c1`, the GI50 was > 100 µM (inactive) in the assay with SK-MEL-2; > 100 µM (inactive) with HCC 2998; above 100 µM in the assay on HCT-15; > 100 µM (inactive) in the assay with KM12; > 100 µM (inactive) with OVCAR-5; > 100 µM (inactive) in the assay on SN12C. In addition, the GI50 in the assay with SK-OV-3, with U-251, in the assay with OVCAR-8, in the assay with NCI-H23, in the assay on MOLT-4 and with SW-620 was > 100 µM (inactive) throughout. The GI50 in the assay with Malme-3M, with NCI-H226, in the assay on SK-MEL-5, in the assay with HT-29, in the assay on SF-539 and with SF-268 was > 100 µM (inactive) throughout.

In the case of `COc1ccc([C@H]2c3cc4c(cc3OC(O)(CO)[C@H]2C(=O)O)OCO4)c(OC)c1.COc1ccc([C@H]2c3cc4c(cc3OC3(O)COC(=O)[C@@H]23)OCO4)c(OC)c1` (stereo partly drawn), the GI50 with SK-MEL-2 is > 100 µM (inactive); in the assay with TK-10 it was > 100 µM (inactive); with HCC 2998 it was > 100 µM (inactive); in the assay with HCT-15 it was 37.6 µM; with KM12 it was > 100 µM (inactive); with OVCAR-5, > 100 µM (inactive). Besides, the GI50 in the assay on SN12C is > 100 µM (inactive); in the assay on ACHN it was > 100 µM (inactive); in the assay on SK-OV-3, > 100 µM (inactive); in the assay on U-251 it was 41.9 µM (inactive); in the assay on OVCAR-8 it was > 100 µM (inactive); in the assay with NCI-H23 it was > 100 µM (inactive). In addition, the GI50 with MOLT-4 is 61.5 µM (inactive); in the assay on SW-620, > 100 µM (inactive); in the assay on Malme-3M it was > 100 µM (inactive); with NCI-H226, > 100 µM (inactive); with SK-MEL-5 it was > 100 µM (inactive); in the assay on HT-29, > 100 µM (inactive). In addition, the GI50 in the assay on SF-539 and in the assay with SF-268 was > 100 µM (inactive) in each case.

For `N/C(=N\O)N/N=C\c1ccc(O)c(O)c1O`, the GI50 in the assay with SK-MEL-2 was > 46 µM (inactive); with HCC 2998, 36.9 µM (inactive); in the assay on HCT-15, 19.2 µM; with KM12, 26.7 µM (inactive); in the assay with OVCAR-5, > 48.1 µM (inactive); in the assay on SN12C, 19.5 µM (inactive). Besides, the GI50 in the assay with SK-OV-3 was > 100 µM (inactive); with U-251, > 52.8 µM (inactive); with OVCAR-8, 30.4 µM (inactive); in the assay with NCI-H23, 24.4 µM (inactive); in the assay on MOLT-4 it was 24.9 µM (inactive); in the assay on SW-620, 19.7 µM (inactive). Also, the GI50 with Malme-3M is > 100 µM (inactive); in the assay with NCI-H226, 39.1 µM (inactive); in the assay with SK-MEL-5, 19.8 µM (inactive); in the assay with HT-29, 11.1 µM (inactive); in the assay with SF-539 it was > 100 µM (inactive); in the assay with SF-268, 60.1 µM (inactive).

Turning to `CCOC(=O)C(O)(NC(=O)c1ccccc1F)C(F)(F)F` (stereo not drawn), the GI50 in the assay with SK-MEL-2 was > 100 µM (inactive); in the assay with TK-10 it was > 100 µM (inactive); in the assay with HCC 2998 it was > 100 µM (inactive); with HCT-15 it was above 100 µM; in the assay with KM12, > 100 µM (inactive); in the assay with OVCAR-5, > 100 µM (inactive). In addition, the GI50 in the assay with SN12C, with ACHN, in the assay on SK-OV-3, in the assay on U-251, in the assay on OVCAR-8 and in the assay with NCI-H23 was > 100 µM (inactive) throughout. Besides, the GI50 in the assay with MOLT-4, in the assay on SW-620, in the assay with Malme-3M, in the assay on NCI-H226, in the assay with SK-MEL-5 and in the assay with HT-29 was > 100 µM (inactive) each time. The GI50 with SF-539 and in the assay with SF-268 was > 100 µM (inactive) each time.

Regarding `CCOC(=O)Cc1cnc(NC(NC(=O)CC)(C(F)(F)F)C(F)(F)F)s1`, the GI50 in the assay with SK-MEL-2 was > 100 µM (inactive); in the assay on TK-10, > 100 µM (inactive); with HCC 2998, 93.3 µM (inactive); in the assay on HCT-15, above 100 µM; with KM12, > 100 µM (inactive); with OVCAR-5 it was > 100 µM (inactive). Further, the GI50 with SN12C, in the assay with ACHN, with SK-OV-3, in the assay with U-251, in the assay on NCI-H23 and in the assay with MOLT-4 was > 100 µM (inactive) in each case. Besides, the GI50 in the assay with Malme-3M, in the assay on NCI-H226, in the assay with HT-29, with SF-539 and with SF-268 was > 100 µM (inactive) each time.

Turning to `COc1cc(C2c3cc4c(cc3[C@@H](Nc3ccc(Oc5ccccc5)cc3)C3COC(=O)[C@H]23)OCO4)cc(OC)c1O` (stereo partly drawn), the GI50 in the assay with SK-MEL-2 is > 29.9 µM (inactive); in the assay on HCC 2998 it was 1.64 µM (inactive); in the assay with HCT-15, 1.3 µM; with KM12 it was 4.57 µM (inactive); in the assay on OVCAR-5 it was > 61 µM (inactive); in the assay with SN12C, 2.7 µM (inactive). Also, the GI50 is 4.93 µM (inactive) in the assay with SK-OV-3; 2.36 µM (inactive) in the assay with U-251; 4.5 µM (inactive) in the assay on OVCAR-8; 1.12 µM (inactive) in the assay with NCI-H23; 0.329 µM (active) in the assay with MOLT-4; 2.07 µM (inactive) in the assay on SW-620. In addition, the GI50 in the assay on Malme-3M is 3.7 µM (inactive); in the assay with NCI-H226 it was 1.56 µM (inactive); in the assay on SK-MEL-5, 1.58 µM (inactive); in the assay on HT-29, 1.74 µM (inactive); in the assay with SF-539, 0.536 µM (active); in the assay on SF-268, 2.52 µM (inactive).

These data come from ChEMBL document CHEMBL1201862, “PubChem BioAssay data set” (2004).
